Test results: patent publication US20240294595A1, “GLYCOPEPTIDES AND USES THEREOF” (Arizona Board of Regents on Behalf of the University of …, priority 2013, published 2024)
“Also recorded” adds a separate entry of the source. Where no end group is shown, it is not given here.

Tests used:
PAC1 [1] = target: T1, PAC1 (Homo sapiens, UniProt P41586); conditions: previously reported; cited from earlier work
T1 sequence (P41586 21-468): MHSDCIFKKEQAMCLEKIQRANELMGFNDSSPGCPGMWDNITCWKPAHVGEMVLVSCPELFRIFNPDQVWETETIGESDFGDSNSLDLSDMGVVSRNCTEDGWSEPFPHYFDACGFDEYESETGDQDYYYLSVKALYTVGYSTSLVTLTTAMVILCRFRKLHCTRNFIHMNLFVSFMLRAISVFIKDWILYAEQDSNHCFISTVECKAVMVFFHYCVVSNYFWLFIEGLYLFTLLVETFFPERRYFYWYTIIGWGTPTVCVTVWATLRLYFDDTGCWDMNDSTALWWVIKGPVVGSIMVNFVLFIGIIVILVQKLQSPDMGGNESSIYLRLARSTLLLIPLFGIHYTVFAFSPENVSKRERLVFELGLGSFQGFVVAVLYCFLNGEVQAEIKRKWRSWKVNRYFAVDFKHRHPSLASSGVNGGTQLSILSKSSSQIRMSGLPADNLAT

PAC1 [2] = target: T1, PAC1; assay: PAC1-CHO calcium flux, FLIPR antagonist mode versus PACAP1-27; format: cell-based; parameters: host or cells: CHO (clonal line PAC1-CHO)
Method: The construct was electroporated into Chinese Hamster Ovary (CHO) cells, and selected for with 500 μg/mL of G418. The resulting population was screened for high expressing clones, and one such clone selected for further analysis. […] This cell line was used for all molecular pharmacology experiments. […] All molecular pharmacology experiments were carried out using a FLIPR Tetra from Molecular Devices (Sunnyvale, CA), set to image calcium flux using the manufacturer's recommended settings and protocols. […] The cells were recovered overnight in growth medium (as above). The next day, the growth medium was replaced with Calcium 6 dye (Molecular Devices) using the manufacturer recommended buffer with 2.5 mM probenecid. […] The resulting calcium flux was recorded, and the maximum-minimum response over the entire observation time calculated and reported as the mean±SEM (4 wells per point). For antagonist mode experiments, a concentration curve (variable concentration mode) or fixed amount (fixed concentration mode) of antagonist was added to the cells, and allowed to equilibrate for 2 minutes. […] The resulting data was analyzed using a Gaddum/Schild EC50 shift model, (Schild, 1957, Gaddum, 1957) designed to analyze competitive antagonism. (Lazareno and Birdsall, 1993) The data output was the pA2 (nM) and the Schild Slope, a measure of how closely the experimental data fits the operational model of competitive antagonism (Prism). For all analyses, each independent experiment performed in quadruplicate is considered to be a sample size of 1. The pharmacology values are calculated separately from each experiment, then combined and reported as the mean±SEM for the entire set of experiments.

PC12 cells = assay: PC12 cell morphology / neurite outgrowth; format: cell-based; conditions: 100 nM
Method: PC12 cells are non-adherent cells, and in spite of using the poly-D-Lysine coated plates, the majority of the cells remained suspended. During the media exchange many of the cells were removed with the spent media. The remaining cells could be visually evaluated for qualitative morphological changes at the end of the treatment period, but meaningful cell quantification could not be done reliably using this approach.
FIGS. 5A-5D show PC12 Cell Morphology after Vehicle vs PACAP Treatment (100 nM). […] In all cases the process outgrowths on the treated cells were greater than 2× the cell body width
The PC12 cells were cultured in RPMI containing 5% heat inactivated fetal bovine serum and 10% horse serum in the presence of 100 units/mL penicillin and 100 microgram/mL streptomycin. The cells were plated on poly-D-Lysine coated 6-well tissue culture plates at a density of 150,000 cells per well in 2 mL media. After 48 hours at 37° C. in 5% CO2 atmosphere, media exchange was performed and plates were dosed, using the peptide diluent (water) for the control samples. […] Cell images of each treatment group were captured and compared to the control cells to screen for differentiation and cell body volume increases. Cells having neurite-like process outgrowth were noted and photographed. The neurite-like outgrowth was deemed positive if its length was at least two times the width of the cell body.

[3] = stability in mouse serum at 37° C. (FI-MSn); format: in vitro ADME; conditions: mouse serum at 37° C.
Description: Chemical stability of the glycopeptides in vivo plays an important role in the deliverability of the drugs to the site(s) of action within the brain. It is also important to know what the chemical or metabolic instabilities are in order to inform the drug design process. […] Data were fitted using a single exponential decay model (R^2>0.71, in all cases).
The overall process was as follows: Flow-injection tandem mass spectrometry (FI-MS^n) was used to observe the degradation of the peptides and glycopeptides with a Thermo LCQ with electrospray ionization (ESI). The technique involved injection of a sample bolus of material in mouse serum via a six port valve with fluid flow delivered via a syringe pump, and subsequent electrospray ionization (ESI) followed by mass spectral analysis. Samples were diluted to a concentration of ˜5 μM of each PACAP analogue, and were incubated at 37° C. for times varying from 1 to 60 minutes. After samples had been incubated for the prescribed amount of time they were prepared for mass spectrometry analysis by withdrawing 10 microliters of solution and spiking with 1 microliter of a 10 μM solution of peptide internal standard (angiotensin II) in 50% acetic acid and subjecting them to a standard C18 zip tip desalting. These solutions, once eluted from the zip tip were diluted to 100 μL in 50:50 acetonitrile/water with 0.1% formic acid. Tandem mass spectrometry analysis (MS^3) was conducted to yield specific, quantitative signals proportional to the amount of PACAP analogue at each time point. This technique was also used with microdiasylate samples from a mouse after i.p. administration of PACAP1-27-S-G.

[4] = rat, serum
[5] = system: 6-OHDA hemi-parkinsonian rat model; assay: mild (25%) 6-OHDA hemi-parkinsonian rat model (study 1); format: in vivo
Description: The classical mild progressive 6-OHDA hemi-parkinsonian rat model was used to assess the neuroprotective potential of 2LS98Lac (FIGS. 9A,B). Briefly, the rats were given unilateral lesions by treatment with 6-OHDA. Then, the rats were challenged with a dopaminergic receptor agonist (amphetamine in our case) and assessed for their turning behavior (Kelly et al., 1975; Torres and Dunnet, 2007; DaCunha et al., 2008) The observed rotational behavior is likely due to the denervation of dopaminergic neurons and subsequent hypersensitivity of the dopaminergic receptors in the lesioned area of the brain. In the first experiment, mild lesions (25%) were induced (FIG. 9A) to simulate the early stages of PD, and amphetamine was used to induce […] rotations. Rats were treated with either vehicle or 2LS98Lac (15 mg/kg, i.p.) 6 h prior to lesioning and 24 h post-lesion. […] Following behavioral analysis, the number of tyrosine hydroxylase (TH)-positive neurons in the SNpc of both vehicle-treated and 2LS98Lac-treated animals was determined using immunohistochemical staining and unbiased stereology. […] Both behavioral and histological data obtained from these experiments indicate that 2LS98Lac successfully elicited neuroprotection.

[6] = system: 6-OHDA hemi-parkinsonian rat model; assay: moderate (40%) 6-OHDA hemi-parkinsonian rat model (study 2); format: in vivo
Description: In a follow-up study, the neuroprotective potential of 2LS98Lac was also probed in rats with more severe (40%) 6-OHDA-induced lesions and three treatment-injections with 2LS98Lac (FIG. 9B).
Specifically, 6-OHDA did lead to reduction of % area IBA-1/cell (F3-24=4.463, p=0.0140; FIG. 9K), process length/cell (F3-24=5.925, p=0.0057; FIG. 9L), branches/cell (F3-24=5.845, p=0.0042; FIG. 9M), and endpoints/cell (F3-24=2.943, p=0.0286; FIG. 9N) on the lesioned side. Treatment with 2LS98Lac did lead to an increase of the parameters on the lesioned side back to levels on the intact side. […] Example images for the nigral IHC for TH and for IBA-1, as well as the semi-quantitative western analyses of striatal TH and beta-actin are presented in FIGS. 10A-D.

[7] = lesioned side, treatment vs vehicle
[8] = three treatment-injections, vs vehicle
[9] = treatment vs vehicle, listed as 2LS98lac

In the case of `CSCC[C@H](NC(=O)[C@H](CCC(N)=O)NC(=O)[C@H](CCCCN)NC(=O)[C@H](CCCNC(=N)N)NC(=O)[C@H](Cc1ccc(O)cc1)NC(=O)[C@H](CCCNC(=N)N)NC(=O)[C@H](CO)NC(=O)[C@H](Cc1ccc(O)cc1)NC(=O)[C@H](CO)NC(=O)[C@H](CC(=O)O)NC(=O)[C@@H](NC(=O)[C@@H](N)Cc1ccccc1)[C@@H](C)O)C(=O)N[C@@H](C)C(=O)N[C@H](C(=O)N[C@@H](CCCCN)C(=O)N[C@@H](CCCCN)C(=O)N[C@@H](Cc1ccc(O)cc1)C(=O)N[C@@H](CC(C)C)C(=O)N[C@@H](C)C(=O)N[C@@H](C)C(=O)N[C@H](C(=O)N[C@@H](CC(C)C)C(=O)NCC(=O)N[C@@H](CCCCN)C(=O)N[C@@H](CCCNC(=N)N)C(=O)N[C@@H](Cc1ccc(O)cc1)C(=O)N[C@@H](CCCCN)C(=O)N[C@@H](CCC(N)=O)C(=O)N[C@@H](CCCNC(=N)N)C(=O)N[C@H](C(=O)N[C@@H](CCCCN)C(=O)N[C@@H](CC(N)=O)C(=O)N[C@@H](CCCCN)C(N)=O)C(C)C)C(C)C)C(C)C` [PACAP6-38], the Ki (PAC1 [1]) is listed as 1.5 nM, the Kb (PAC1 [2]; Gaddum/Schild EC50 shift model, read-out: pA2 (converted)) is listed as 201 ± 55.4 nM and the IC50 (PAC1 [2]; read-out: antagonism potency (IC50), variable concentration mode) is listed as over 333 nM.
For “PACAP6-27: truncated putative antagonist (FTDSYSRYRKQMAVKKYLAAVL; ends and bridges not checked)”, the Ki (PAC1 [1]) is listed as 60 nM, the “shift of PACAP1-27 agonist curves, fixed concentration mode” value (PAC1 [2]; fixed antagonist concentrations up to 1 μM) is listed as “no detectable shifts in the agonist curves; also recorded: caused no shift in the agonist curves” and the “antagonist activity, variable concentration mode” value (PAC1 [2]; versus 5 nM PACAP1-27, concentration up to 1 μM) is listed as “no significant antagonist activity”.
With “PACAP1-27-S-L: the corresponding lactoside of PACAP1-27 (HSDGIFTDSYSRYRKQMAVKKYLAAVLS; not fully specified)” the cell body volumes (PC12 cells) was “showed increases” and the “degradation in mouse serum” value [3] was “degraded over 30 min”.
For `CC[C@H](C)[C@H](NC(=O)CNC(=O)[C@H](CC(=O)O)NC(=O)[C@H](CO)NC(=O)[C@@H](N)Cc1c[nH]cn1)C(=O)N[C@@H](Cc1ccccc1)C(=O)N[C@H](C(=O)N[C@@H](CC(=O)O)C(=O)N[C@@H](CO)C(=O)N[C@@H](Cc1ccc(O)cc1)C(=O)N[C@@H](CO)C(=O)N[C@@H](CCCNC(=N)N)C(=O)N[C@@H](Cc1ccc(O)cc1)C(=O)N[C@@H](CCCNC(=N)N)C(=O)N[C@@H](CCCCN)C(=O)N[C@@H](CCC(N)=O)C(=O)N[C@@H](CC(C)C)C(=O)N[C@@H](C)C(=O)N[C@H](C(=O)N[C@@H](CCCCN)C(=O)N[C@@H](CCCCN)C(=O)N[C@@H](Cc1ccc(O)cc1)C(=O)N[C@@H](CC(C)C)C(=O)N[C@@H](C)C(=O)N[C@@H](C)C(=O)N[C@H](C(=O)N[C@@H](CC(C)C)C(=O)N[C@@H](CO[C@@H]1O[C@H](CO)[C@@H](O[C@@H]2O[C@H](CO)[C@H](O)[C@H](O)[C@H]2O)[C@H](O)[C@H]1O)C(N)=O)C(C)C)C(C)C)[C@@H](C)O` [Compound 2LS80Lac], the half-life [4] was over 1 h.
For “2LS98Lac: PACAP glycopeptide; 2LS98 = HSDGIFTDSYSRYRKQLAVKKYLAAVL-Ser-CONH2 (SEQ ID NO: 7), lactose (HSDGIFTDSYSRYRKQLAVKKYLAAVLS; not fully specified; lactose glycosylation, C-terminal amide) [Compound 2LS98Lac]”, the “cumulative amphetamine-induced contralateral rotations” value ([5]; 15 mg/kg i.p. 6 h prior and 24 h post-lesion, vs vehicle) was “significantly decreased; also recorded: reduces 6-OHDA-induced lesion damage”, the “TH-positive neurons in the SNpc, lesioned vs intact side” value ([5]; 15 mg/kg i.p., mild lesion) was “neuronal cell death was attenuated” and the “6-OHDA-induced change in microglia morphologic phenotype” value ([6]; lesioned side) was “fully reversed”. For the same molecule, the “% area IBA-1/cell” value [6, 7] was “significant increase”, the branches/cell [6, 7] was “significant increase” and the endpoints/cell [6, 7] was “trend toward increase”. For the same molecule, the process length/cell [6, 7] was “significant increase”, the “6-OHDA-induced change in microglia morphologic phenotype” value ([6]; lesioned side, listed as 2LS98lac) was “rescues 6-OHDA induced morphological changes to microglia” and the “nigral TH-cell count on the lesioned side” value ([6]; moderate lesion) was 9,244 cells. For the same molecule, the “mean increase of nigral TH-cell count on the lesioned side vs vehicle group” value ([6]; not significant (p=0.2208)) was 850 cells, the “amphetamine-induced rotations at 2 weeks post-lesion” value [6, 8] was “did not see a difference; also recorded: does not reduce 6-OHDA-induced lesion damage” and the “amphetamine-induced rotations at 4 weeks post-lesion” value [6, 8] was “did not see a difference; also recorded: does not reduce 6-OHDA-induced lesion damage”. For the same molecule, the “striatal DA content” value ([6]; treatment vs vehicle) was “no significant difference”, the “striatal TH (western analysis)” value ([6]; treatment vs vehicle) was “no significant difference” and the “striatal DA content” value [6, 9] was “did not change”. For the same molecule, the “striatal TH (western analysis)” value [6, 9] was “did not change”.
